From article PMC8230281, “Improving the Pharmacological Properties of Ciclopirox for Its Use in Congenital Erythropoietic Porphyria” (Journal of Personalized Medicine, 2021)

Experiments:
[1] = Serum CPX pharmacokinetics in mice after single IV or oral dose, quantified by NMR; assay type: in vivo
Description: (§1) The compound ciclopirox (CPX, 6-cyclohexyl-1-hydroxy-4-methyl-2(1H)-pyridinone) was purchased from Santa Cruz Biotechnology (sc-204688), and phosphorylated ciclopirox (CPXpom, O-phosphoryl-methylen-6-cyclohexyl-1-hydroxy-4-metyl-2(1H)-Pyridinone) was synthetized by Charnwood Molecular Ltd. PD of CPX was studied in HEK CRISPR Cas UROIIIS-C73R and UROIIIS-P248Q cell lines. Briefly, 60 µM dose of CPX and phosphorylated CPX was administrated for 30 min and 1, 2, and 4 h of exposition. Then, the cells were counted and harvested. Samples were treated by the same protocol for the porphyrin extraction. Mouse experiments. For the PK experiments and for each bolus administration method 10 WT ICR (CD-1®) outbred mice (Envigo) were used. Serum was collected after the administration at 1, 2, 4, 6 (7), 12, and 24 h. At 48 (36) h, the mice were sacrificed. Triplicates were collected for each data point. […] In the PD experiments, the concentration of porphyrins was measured from circulating blood. […]
NMR data were collected at on an 800-MHz Bruker Avance III spectrometer equipped with a cryoprobe and on a 600-MHz Bruker Avance III US2 spectrometer. […] Metabolic quantification was carried out at peaks’ integral against the added internal reference compound. […]
Non-compartmental serum and urine pharmacokinetic parameters for CPXpom and CPX were determined using SimBiology module in MATLAB. […]

[2] = GI toxicity in WT mice after administration of CPX or CPXpom; assay type: in vivo; details: for macroscopic inflammation of the gut: mice, Figure 1; for GI toxicity: 100 mg/kg
[3] = test system: HEK CRISPR Cas UROIIIS-C73R cell line; assay: URO I levels in HEK CRISPR/Cas9 cellular model of CEP (UROIIIS-C73R), HPLC; assay type: cell-based; details: UROIIIS^C73R HEK cells; 60 µM; 30 min to 4 h
Description: as §1, with “used.” for “used. Serum was collected after the administration at 1, 2, 4, 6 (7), 12, and 24 h. At 48 (36) h, the mice were sacrificed. Triplicates were collected for each data point.”
(§2) Murine blood samples were obtained from the submandibular vein and collected in ethylenediaminetetraacetic acid tubes; samples were aliquoted and stored in a freezer at −80 °C. […] The samples were then analyzed by HPLC.
(§3) Porphyrins from cell lines were separated by HPLC analysis on a ODS Hypersil C18 column (5 µm, 3 mm × 200 mm; Thermo Scientific, Waltham, MA, US) in a HPLC chromatograph (Shimadzu, Long Beach, CA, US). […] All analyses were performed at 20 °C, and porphyrins were detected by fluorescence with an excitation wavelength 405 nm and emission wavelength 610 nm. […]

[4] = test system: HEK CRISPR Cas UROIIIS-P248Q cell line; assay: URO I levels in HEK CRISPR/Cas9 cellular model of CEP (UROIIIS-P248Q), HPLC; assay type: cell-based; details: UROIIIS^P248Q HEK cells; 60 µM
Description: as §1, with “used.” for “used. Serum was collected after the administration at 1, 2, 4, 6 (7), 12, and 24 h. At 48 (36) h, the mice were sacrificed. Triplicates were collected for each data point.”
as §2, §3

[5] = test system: mouse model of the disease (UROIIIS^P248Q/P248Q); assay: Oral gavage for 30 days in mouse model of CEP; assay type: in vivo; details: UROIIIS^P248Q/P248Q mice; for reduction in total UROI levels in serum: oral gavage, after 30 days, equivalent dose
Description: The compound ciclopirox (CPX, 6-cyclohexyl-1-hydroxy-4-methyl-2(1H)-pyridinone) was purchased from Santa Cruz Biotechnology (sc-204688), and phosphorylated ciclopirox (CPXpom, O-phosphoryl-methylen-6-cyclohexyl-1-hydroxy-4-metyl-2(1H)-Pyridinone) was synthetized by Charnwood Molecular Ltd. PD of CPX was studied in HEK CRISPR Cas UROIIIS-C73R and UROIIIS-P248Q cell lines. Briefly, 60 µM dose of CPX and phosphorylated CPX was administrated for 30 min and 1, 2, and 4 h of exposition. Then, the cells were counted and harvested. Samples were treated by the same protocol for the porphyrin extraction. Mouse experiments. For the PK experiments and for each bolus administration method 10 WT ICR (CD-1®) outbred mice (Envigo) were used. Serum was collected after the administration at 1, 2, 4, 6 (7), 12, and 24 h. At 48 (36) h, the mice were sacrificed. Triplicates were collected for each data point. Urine samples were collected at the same interval. In the PD experiments, the concentration of porphyrins was measured from circulating blood. Blood samples were extracted from the submandibular vein every week, and mice were weighed before each extraction. Mice were treated with oral CPX by gavage to evaluate CPX dose efficiency. […] All work performed with animals was approved by the competent authority (Diputación Foral de Bizkaia) following European and Spanish directives. The CIC bioGUNE Animal Facility is accredited by AAALAC Intl.
as §2, §3

murine models of CEP = test system: murine models of CEP; parameters: method as in PMID 30232228; details: cited from earlier work
[6] = parameters: method as in PMID 2989308; details: weak acidic N-hydroxyl group of the 1-hydroxy-2(1H)-pyridones; cited from earlier work
[7] = parameters: method as in PMID 7197542; details: oral; 1 mg/kg rats, 10-15 mg/kg dogs; cited from earlier work
[8] = parameters: method as in PMID 7028047; details: rats; 4 weeks; doses up to 300 mg/kg; cited from earlier work
[9] = test system: cellular models of the disease, obtained from HEK cells by CRISPR/Cas9 editing; assay: Equivalent cellular studies in cellular models of CEP (data not shown); assay type: cell-based
Text: We first tested the derivatives on different cellular models of the disease, obtained from HEK cells by CRISPR/Cas9 editing. The selected mutations (UROIIIS^C73R and UROIIIS^P248Q) result in destabilized proteins and severe phenotypes. […] Thus, the reported activity for CPXpom is attributed to a proper hydrolysis of the compound into the active species.

SMILES: Cc1cc(C2CCCCC2)n(O)c(=O)c1 [CPX, 6-cyclohexyl-1-hydroxy-4-methyl-2(1H)-pyridinone]
- CPXFREE ([1]; Table S3, serum, IV, dose 10 mg/kg, CPXfree = CPXtot − CPXglu): < 21.4%
- macroscopic inflammation of the gut [2]: Macroscopic inflammation can be observed
- GI toxicity ([2]; mouse, in vivo, po): results in GI toxicity
- levels of the toxic by-product URO I [3]: significantly reduced
- levels of the toxic by-product URO I [4]: significantly reduced
- reduction in total UROI levels in serum [5]: 40%
- splenomegaly (murine models of CEP; indirect measure of reduction in circulating porphyrins): reduced splenomegaly
- levels of the toxic porphyrins, particularly URO I and COPRO I (murine models of CEP; liver, red blood cells, and urine): significant decrease
- pK [6]: 7

SMILES: Cc1cc(C2CCCCC2)n(OCOP(=O)(O)O)c(=O)c1 [CPXpom, O-phosphoryl-methylen-6-cyclohexyl-1-hydroxy-4-metyl-2(1H)-Pyridinone]
- circulating concentration of CPXpom (NMR spectrum of serum) ([1]; after CPXpom administration): below the detection limit
- GI toxicity ([2]; WT mice, oral (gavage)): does not result in GI toxicity
- macroscopic inflammation of the gut [2]: no macroscopic inflammation
- levels of the toxic by-product URO I [3]: significantly reduced
- levels of the toxic by-product URO I [4]: significantly reduced
- reduction in total UROI levels in serum [5]: 5%
- GI toxicity ([5]; orally by gavage for 30 days): no GI toxicity was observed

SMILES: Cc1cc(C2CCCCC2)n(O)c(=O)c1 [ciclopirox-olamine]
- elimination in urine (time) [7]: 3 to 6 h
- gastric findings [8]: gastric irritation and chronic gastritis

SMILES: NC(Cn1ccc(=O)c(O)c1)C(=O)O (stereo not shown) [mimosine]
- activity in cellular models of CEP [9]: no activity
